By pIC50 is commonly meant the IC50 on a negative log10 scale, so that one unit is a factor of ten.

Experiment [1] has as its target PI3Kγ (p110γ) Recombinant Human Protein (Homo sapiens (Human), UniProt P48736). Kind of experiment: PI3K-γ Scintillation Proximity Assay. The note with it: 20 μM PIP2, 2 μM ATP, 13 nM PI3Kγ, 120 min, room temperature. The experiment is classed as biochemical. From the text:
Example B. PI3K-γ Scintillation Proximity Assay Materials: [γ-^33P]ATP (10 mCi/mL) and Wheat Germ Agglutinin (WGA) YSi SPA Scintillation Beads was purchased from Perkin Elmer (Waltham, MA). Lipid kinase substrate, D-myo-Phosphatidylinositol 4,5-bisphosphate (PtdIns(4,5)P2)D (+)-sn-1,2-di-O-octanoylglyceryl, 3-O-phospho linked (PIP2), CAS 204858-53-7, was purchased from Echelon Biosciences (Salt Lake City, UT). PI3Kγ (p110γ) Recombinant Human Protein was purchased from Life technology (Grand Island, NY). ATP, MgCl2, DTT, EDTA, MOPS and CHAPS were purchased from Sigma Aldrich (St. Louis, MO). The kinase reaction was conducted in polystyrene 384-well Greiner Bio-one white plate from Thermo Fisher Scientific in a final volume of 25 μL. Inhibitors were first diluted serially in DMSO and added to the plate wells before the addition of other reaction components. The final concentration of DMSO in the assay was 2%. The PI3Kγ assay was carried out at room temperature in 20 mM MOPS, pH 6.7, 10 mM MgCl2, 5 mM DTT and CHAPS 0.03%. Reactions were initiated by the addition of ATP, the final reaction mixture consisted of 20 μM PIP2, 2 μM ATP, 0.5 μCi [γ-^33P] ATP, 13 nM PI3Kγ. Reactions were incubated for 120 min and terminated by the addition of 40 μL SPA beads suspended in quench buffer: 163 mM potassium phosphate pH 7.8, 20% glycerol, 25 mM EDTA. The final concentration of SPA beads is 1.0 mg/mL. After the plate sealing, plates were shaken overnight at room temperature and centrifuged at 1500 rpm for 10 min, the radioactivity of the product was determined by scintillation counting on Topcount (Perkin-Elmer). IC50 determination was performed by fitting the curve of percent of the solvent control activity versus the log of the inhibitor concentration using the GraphPad Prism 6.0 software.
On the technique in general: In a scintillation proximity assay essentially only radioactivity close to the scintillant gives light.

Experiment [2] concerns Phosphorylated Ribosomal Protein S6 (RPS6) in THP-1 cells. Kind of experiment: THP-1 RPS6 ELISA Assay. The experiment is classed as cell-based, Human. The settings on record: Homo sapiens; THP-1 cells, serum starved, 2 hours compound, 10 nM MCP-1 for 15 minutes, Phospho-RPS6 ELISA; read-out: PI3Kγ_THP1_RPS6_ELISA IC50. The protocol: Example A. THP-1 RPS6 ELISA Assay
To measure the Phosphorylated Ribosomal Protein S6 (RPS6) in cell lysates, THP-1 cells (Human Acute Monocytic Leukemia) are purchased from ATCC (Manassas, VA) and maintained in RPMI with 10% FBS (Gibco/Life Technologies, Carlsbad, CA). For the assay, THP-1 cells are serum starved overnight in RPMI, then plated in RPMI (2×10^5 cells/well in 90 μL) into 96-well flat-bottom tissue culture treated plates (Corning, Corning, NY), in the presence or absence of a concentration range of test compounds. Covered plates are incubated for 2 hours at 37° C., 5% CO2 then treated with or without 10 nM MCP-1(MYBioSource, San Diego, CA) for 15 minutes at 37° C., 5% CO2. Plates are centrifuged at 1600 RPM and supernatants are removed. Cells are lysed in Lysis Buffer (Cell Signaling, Danvers, MA) with Protease Inhibitor (Calbiochem/EMD, Germany), PMSF (Sigma, St Louis MO), HALTS (Thermo Fisher, Rockford, IL) for 30 min on wet ice. Cell lysates are frozen at −80° C. before testing. The lysates are tested in the Human/Mouse/Rat Phospho-RPS6 ELISA (R&D Systems, Inc. Minn, MN). The plate is measured using a microplate reader (SpectraMax M5—Molecular Devices, LLC Sunnyvale, CA) set to 450 nm with a wavelength correction of 540. IC50 determination is performed by fitting the curve of inhibitor percent inhibition versus the log of the inhibitor concentration using the GraphPad Prism 5.0 software.

For experiment [3], the target named is PI3Kδ (p110δ/p85α) Recombinant Human Protein (Homo sapiens (Human), UniProt O00329). Kind of experiment: PI3Kδ Scintillation Proximity Assay. The format is biochemical. The settings on record: 20 μM PIP2, 2 μM ATP, 3.4 nM PI3Kδ, 120 min, room temperature. From the text:
Example C. PI3Kδ Scintillation Proximity Assay Materials: [γ-^33P]ATP (10 mCi/mL) and Wheat Germ Agglutinin (WGA) YSi SPA Scintillation Beads was purchased from Perkin Elmer (Waltham, MA). Lipid kinase substrate, D-myo-Phosphatidylinositol 4,5-bisphosphate (PtdIns(4,5)P2)D (+)-sn-1,2-di-O-octanoylglyceryl, 3-O-phospho linked (PIP2), CAS 204858-53-7, was purchased from Echelon Biosciences (Salt Lake City, UT). PI3Kδ (p110δ/p85α) Recombinant Human Protein was purchased from Eurofins (St Charles, MO). ATP, MgCl2, DTT, EDTA, MOPS and CHAPS were purchased from Sigma Aldrich (St. Louis, MO). The kinase reaction was conducted in polystyrene 384-well Greiner Bio-one white plate from Thermo Fisher Scientific in a final volume of 25 μL. Inhibitors were first diluted serially in DMSO and added to the plate wells before the addition of other reaction components. The final concentration of DMSO in the assay was 2%. The PI3Kδ assay was carried out at room temperature in 20 mM MOPS, pH 6.7, 10 mM MgCl2, 5 mM DTT and CHAPS 0.03%. Reactions were initiated by the addition of ATP, the final reaction mixture consisted of 20 μM PIP2, 2 μM ATP, […] [γ-^33P] ATP, 3.4 nM PI3Kδ. Reactions were incubated for 120 min and terminated by the addition of 40 μL SPA beads suspended in quench buffer: 163 mM potassium phosphate pH 7.8, 20% glycerol, 25 mM EDTA. The final concentration of SPA beads is 1.0 mg/mL. After the plate sealing, plates were shaken overnight at room temperature and centrifuged at 1500 rpm for 10 min, the radioactivity of the product was determined by scintillation counting on Topcount (PerkinElmer). IC50 determination was performed by fitting the curve of percent of the solvent control activity versus the log of the inhibitor concentration using the GraphPad Prism 6.0 software.

pIC50: −log10 of the molar value.

PI3Kδ (p110δ/p85α) Recombinant Human Protein, sequence (O00329 whole entry): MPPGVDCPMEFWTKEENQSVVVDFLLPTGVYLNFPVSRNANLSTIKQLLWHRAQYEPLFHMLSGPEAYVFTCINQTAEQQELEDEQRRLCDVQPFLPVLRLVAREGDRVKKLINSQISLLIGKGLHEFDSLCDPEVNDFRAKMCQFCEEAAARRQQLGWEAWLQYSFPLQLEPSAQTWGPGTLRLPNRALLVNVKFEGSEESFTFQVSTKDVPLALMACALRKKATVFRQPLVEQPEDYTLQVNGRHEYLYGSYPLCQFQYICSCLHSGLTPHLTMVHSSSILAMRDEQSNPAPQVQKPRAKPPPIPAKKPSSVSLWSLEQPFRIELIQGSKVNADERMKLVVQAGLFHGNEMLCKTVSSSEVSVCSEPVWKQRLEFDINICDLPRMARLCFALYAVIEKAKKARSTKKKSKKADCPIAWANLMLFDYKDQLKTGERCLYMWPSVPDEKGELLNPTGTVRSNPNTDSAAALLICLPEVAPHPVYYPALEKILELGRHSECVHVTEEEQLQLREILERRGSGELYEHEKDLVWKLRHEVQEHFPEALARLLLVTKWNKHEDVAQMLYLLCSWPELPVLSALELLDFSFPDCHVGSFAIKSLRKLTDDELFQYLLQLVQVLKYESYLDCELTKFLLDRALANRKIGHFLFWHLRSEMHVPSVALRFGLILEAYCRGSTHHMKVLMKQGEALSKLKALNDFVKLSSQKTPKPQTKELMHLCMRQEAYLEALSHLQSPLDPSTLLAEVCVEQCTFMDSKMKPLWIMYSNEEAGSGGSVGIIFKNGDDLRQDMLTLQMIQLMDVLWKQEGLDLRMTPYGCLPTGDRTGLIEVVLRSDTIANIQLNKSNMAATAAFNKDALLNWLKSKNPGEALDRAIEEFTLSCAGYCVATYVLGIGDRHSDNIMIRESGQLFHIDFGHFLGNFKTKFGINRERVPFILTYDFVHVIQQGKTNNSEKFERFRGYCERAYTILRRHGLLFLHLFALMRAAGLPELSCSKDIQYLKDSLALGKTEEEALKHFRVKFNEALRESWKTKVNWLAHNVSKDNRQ
PI3Kδ (p110δ/p85α) Recombinant Human Protein, sequence (P27986 whole entry partner): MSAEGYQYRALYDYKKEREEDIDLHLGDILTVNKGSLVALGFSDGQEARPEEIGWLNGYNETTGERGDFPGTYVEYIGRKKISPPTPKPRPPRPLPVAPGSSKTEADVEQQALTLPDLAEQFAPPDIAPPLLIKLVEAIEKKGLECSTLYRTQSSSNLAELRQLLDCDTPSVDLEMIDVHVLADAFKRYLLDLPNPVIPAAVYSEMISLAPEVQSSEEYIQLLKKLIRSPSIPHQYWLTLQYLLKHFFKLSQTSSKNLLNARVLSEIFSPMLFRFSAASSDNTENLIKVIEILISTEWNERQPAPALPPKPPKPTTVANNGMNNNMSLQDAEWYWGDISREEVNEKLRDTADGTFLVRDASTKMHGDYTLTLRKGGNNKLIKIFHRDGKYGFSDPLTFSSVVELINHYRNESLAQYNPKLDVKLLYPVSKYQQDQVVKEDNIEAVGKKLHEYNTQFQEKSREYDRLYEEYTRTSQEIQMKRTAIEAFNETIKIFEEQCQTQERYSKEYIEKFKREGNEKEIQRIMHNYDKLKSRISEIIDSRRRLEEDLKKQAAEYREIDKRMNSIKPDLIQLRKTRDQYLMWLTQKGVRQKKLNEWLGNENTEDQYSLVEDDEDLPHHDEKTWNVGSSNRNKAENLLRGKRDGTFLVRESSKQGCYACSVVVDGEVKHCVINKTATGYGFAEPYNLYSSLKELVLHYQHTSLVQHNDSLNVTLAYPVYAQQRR
PI3Kγ (p110γ) Recombinant Human Protein, sequence (P48736 whole entry): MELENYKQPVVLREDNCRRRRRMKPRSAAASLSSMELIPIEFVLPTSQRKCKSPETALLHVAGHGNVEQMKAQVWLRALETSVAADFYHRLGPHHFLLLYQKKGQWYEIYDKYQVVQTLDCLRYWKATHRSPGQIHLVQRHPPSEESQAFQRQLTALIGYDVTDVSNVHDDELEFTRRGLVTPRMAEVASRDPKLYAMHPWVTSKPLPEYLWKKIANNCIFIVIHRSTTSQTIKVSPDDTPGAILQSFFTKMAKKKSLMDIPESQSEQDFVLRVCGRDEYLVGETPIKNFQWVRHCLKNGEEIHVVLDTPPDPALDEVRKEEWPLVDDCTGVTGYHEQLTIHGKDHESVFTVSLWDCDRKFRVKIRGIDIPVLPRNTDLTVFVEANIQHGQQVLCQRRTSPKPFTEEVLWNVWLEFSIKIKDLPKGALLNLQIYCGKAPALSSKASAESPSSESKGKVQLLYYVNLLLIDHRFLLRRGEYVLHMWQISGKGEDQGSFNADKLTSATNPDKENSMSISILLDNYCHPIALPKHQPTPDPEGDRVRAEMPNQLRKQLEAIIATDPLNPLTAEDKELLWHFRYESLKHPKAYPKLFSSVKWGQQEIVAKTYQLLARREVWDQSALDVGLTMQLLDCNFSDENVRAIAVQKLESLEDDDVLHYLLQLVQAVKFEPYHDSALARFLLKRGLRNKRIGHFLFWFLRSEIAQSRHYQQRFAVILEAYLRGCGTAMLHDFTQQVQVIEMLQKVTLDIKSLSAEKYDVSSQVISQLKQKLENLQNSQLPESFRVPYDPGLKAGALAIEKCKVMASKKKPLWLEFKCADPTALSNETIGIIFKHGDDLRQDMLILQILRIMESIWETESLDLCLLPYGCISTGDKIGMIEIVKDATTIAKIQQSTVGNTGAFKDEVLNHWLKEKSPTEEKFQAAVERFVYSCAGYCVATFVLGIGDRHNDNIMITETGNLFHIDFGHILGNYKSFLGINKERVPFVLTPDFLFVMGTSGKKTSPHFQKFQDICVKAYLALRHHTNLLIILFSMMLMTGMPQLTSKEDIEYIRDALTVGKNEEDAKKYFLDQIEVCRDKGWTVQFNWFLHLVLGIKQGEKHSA

With `Cc1ccc(C(O)(CO)C(F)(F)F)cc1-c1cnc(N)c(C2CC(C(=O)N3CC(O)C3)C2)n1` (single isomer, unassigned) [Example 24, (3-(3-Amino-6-(2-methyl-5-(1,1,1-trifluoro-2,3-dihydroxypropan-2-yl)phenyl)pyrazin-2-yl)cyclobutyl)(3-hydroxyazetidin-1-yl)methanone], the pIC50 in experiment [1] is at least 7.00; in experiment [2], over 6.30; in experiment [3], at least 6.30.

Regarding `[2H]C([2H])([2H])c1ccc(C(O)(CO)C(F)(F)F)cc1-c1cnc(N)c(C(=O)NC2CC(C#N)C2)n1` (single isomer, unassigned) [Example 26], the pIC50 is at least 7.00 in experiment [1], over 7.00 in experiment [2] and at least 7.00 in experiment [3].

For `[2H]C([2H])([2H])c1ccc(C(O)(CO)C(F)(F)F)cc1-c1cnc(N)c(C(=O)N[C@H]2CCCC[C@@H]2O)n1` (single isomer, unassigned) [Example 27], the values for the pIC50 in experiment [1], in experiment [2] and in experiment [3] were at least 7.00, over 7.00 and at least 6.30, respectively.

With `[2H]C([2H])([2H])c1ccc(C(O)(CO)C(F)(F)F)cc1-c1cnc(N)c(C(=O)NC2CCOCC2O)n1` (single isomer, unassigned) [Example 28], the pIC50 in experiment [1] was at least 7.00; in experiment [2] it was over 7.00; in experiment [3] it was at least 6.30.

Turning to `[2H]C([2H])([2H])c1ccc(C(O)(CO)C(F)(F)F)cc1-c1cnc(N)c(C(=O)N[C@H]2C[C@](O)(C(F)(F)F)C2)n1` (single isomer, unassigned) [Example 29], the results for the pIC50 in experiment [1], in experiment [2] and in experiment [3] were at least 7.00, over 7.00 and at least 7.00, respectively.

As for `[2H]C([2H])([2H])c1ccc(C(O)(CO)C(F)(F)F)cc1-c1cnc(N)c(C(=O)N[C@]2(C)C[C@H](O)C2)n1` (single isomer, unassigned) [Example 30], the pIC50 in experiment [1] is at least 7.00; in experiment [2], over 7.00; in experiment [3], at least 7.00.

For the compound `[2H]C([2H])([2H])c1ccc(C(O)(CO)C(F)(F)F)cc1-c1cnc(N)c(C(=O)NC23CCC(CO)(C2)C3)n1` (single isomer, unassigned) [Example 31], the pIC50 in experiment [1] was at least 7.00; in experiment [2] it was over 7.00; in experiment [3], at least 7.00.

`[2H]C([2H])([2H])c1ccc(C(O)(CO)C(F)(F)F)cc1-c1cnc(N)c(C(=O)NC23CCC(O)(C2)C3)n1` (single isomer, unassigned) [Example 37]: the pIC50 is at least 7.00 in experiment [1], over 7.00 in experiment [2] and at least 7.00 in experiment [3].

As to `[2H]C([2H])([2H])c1ccc(C(O)(CO)C(F)F)cc1-c1cnc(N)c(C(=O)N[C@H]2CCCC[C@@H]2O)n1` (single isomer, unassigned) [Example 38], the pIC50 in experiment [1] was at least 7.00; in experiment [2], over 6.30; in experiment [3], over 5.70.

With `[2H]C([2H])([2H])c1ccc(C(O)(CO)C(F)F)cc1-c1cnc(N)c(C(=O)N[C@@H]2CCCC[C@H]2O)n1` (single isomer, unassigned) [Example 39], the figures for the pIC50 in experiment [1], in experiment [2] and in experiment [3] were at least 7.00, over 6.30 and over 5.70, respectively.

Take `[2H]C([2H])([2H])c1ccc(C(O)(CO)C(F)F)cc1-c1cnc(N)c(C(=O)NC23CCC(C#N)(C2)C3)n1` (single isomer, unassigned) [Example 40]: the pIC50 in experiment [1] was at least 7.00; in experiment [2], over 7.00; in experiment [3], at least 7.00.

As for `[2H]C([2H])([2H])c1ccc(C(O)(CO)C(F)F)cc1-c1cnc(N)c(C(=O)NC2CCOCC2)n1` (single isomer, unassigned) [Example 41], the pIC50 is at least 7.00 in experiment [1], over 7.00 in experiment [2] and at least 7.00 in experiment [3].

As to `Cc1ccc(C(O)(CO)C(F)F)cc1-c1cnc(N)c(C(=O)NC2CCOCC2)n1` (single isomer, unassigned) [Example 42], the results for the negative-log IC50 (pIC50) in experiment [1], in experiment [2] and in experiment [3] were at least 7.00, over 7.00 and at least 7.00, respectively.

Consider `Cc1ccc([C@](O)(CO)C(F)F)cc1-c1cnc(N)c(C(=O)N[C@@H](C)CO)n1` (single isomer, unassigned) [Example 43], for which the pIC50 in experiment [1] is at least 7.00; in experiment [2], over 6.30; in experiment [3] it was at least 6.30.

For `Cc1ccc(C(O)(CO)C(F)F)cc1-c1cnc(N)c(C(=O)NC23CCC(O)(CC2)C3)n1` (single isomer, unassigned) [Example 44, 3-Amino-6-(5-(1,1-difluoro-2,3-dihydroxypropan-2-yl)-2-methylphenyl)-N-(4-hydroxybicyclo[2.2.1]heptan-1-yl)pyrazine-2-carboxamide], the pIC50 in experiment [1] was at least 7.00; in experiment [2], over 7.00; in experiment [3], at least 7.00.

Consider `Cc1ccc(C(O)(CO)C(F)F)cc1-c1cnc(N)c(C(=O)NC23CCC(C#N)(C2)C3)n1` (single isomer, unassigned) [Example 48, 3-Amino-N-(4-cyanobicyclo[2.1.1]hexan-1-yl)-6-(5-(1,1-difluoro-2,3-dihydroxypropan-2-yl)-2-methylphenyl)pyrazine-2-carboxamide], for which the results for the pIC50 in experiment [1], in experiment [2] and in experiment [3] were at least 7.00, over 7.00 and at least 7.00, respectively.

In the case of `[2H]C([2H])([2H])c1ccc(C(O)(C(O)C(F)(F)F)C(F)(F)F)cc1-c1cnc(N)c(-c2c[nH]nc2C)n1` (stereo not drawn) [Example 21, 2-(3-(5-Amino-6-(3-methyl-1H-pyrazol-4-yl)pyrazin-2-yl)-4-(methyl-d3)phenyl)-1,1,1,4,4,4-hexafluorobutane-2,3-diol], the pIC50 was at least 7.00 in experiment [1], over 7.00 in experiment [2] and at least 7.00 in experiment [3].

`Cc1ccc(C(O)(C(C)(C)O)C(F)(F)F)cc1-c1cnc(N)c(C(=O)NC2CCOCC2)n1` (stereo not drawn) [Example 22, 3-Amino-6-(2-methyl-5-(1,1,1-trifluoro-2,3-dihydroxy-3-methylbutan-2-yl)phenyl)-N-(tetrahydro-2H-pyran-4-yl)pyrazine-2-carboxamide]: the pIC50 is at least 7.00 in experiment [1], over 7.00 in experiment [2] and at least 6.30 in experiment [3].

(Values after patent US11926616B2, “Aminopyrazine diol compounds as PI3K-γ inhibitors” (Incyte Corporation, priority 2018, dated 2024).)
